# Measurements: PubChem BioAssay (NCI)
#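 Step 1: Grow cells in 96-well plates. Step 2: Expose to compound for 48 hours at 5 concentrations. Step 3: Interpolate endpoints linearly; if unreached, use highest concentration. The concentration for 50% growth inhibition is given as GI50. The concentration for full growth arrest is given as TGI.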
# Legend:
# Assay in all cases: NCI-60 cell line screen, 48 h
# [1] = system: NCI-H460 lung
# [2] = system: K-562 leukemia
# [3] = system: BT-549 breast
# [4] = system: NCI/ADR-RES ovarian
# [5] = system: MDA-MB-231 breast
# [6] = system: HS 578T breast
# [7] = system: SNB-75 CNS
# [8] = system: UO-31 renal
# [9] = system: OVCAR-3 ovarian
# [10] = system: MDA-MB-435
# [11] = system: RXF 393 renal
# [12] = system: OVCAR-8 ovarian
# [13] = system: LOX IMVI melanoma
# [14] = system: HCT-15 colon
# [15] = system: SK-MEL-5 melanoma
# [16] = system: A549 NSCLC
# [17] = system: SF-295 CNS
# [18] = system: HOP-62 NSCLC
# [19] = system: UACC-62 melanoma
# [20] = system: RPMI-8226 leukemia
# [21] = system: HCT-116 colon
# [22] = system: SN12C renal
# [23] = system: MCF7 breast
# [24] = system: UACC-257 melanoma
# [25] = system: 786-0 renal
# [26] = system: NCI-H226 lung
# [27] = system: PC-3 prostate
# [28] = system: OVCAR-5 ovarian
# [29] = system: CAKI-1 renal
# [30] = system: SK-MEL-2 melanoma
# [31] = system: DU-145 prostate
# [32] = system: SNB-19 CNS
# [33] = system: A498 renal
# [34] = system: U251 CNS
# [35] = system: SK-MEL-28 melanoma
# [36] = system: SF-268 CNS
# [37] = system: SK-OV-3 ovarian
# [38] = system: SW-620 colon
# [39] = system: HL-60(TB) leukemia
# [40] = system: HOP-92 NSCLC
# [41] = system: CCRF-CEM leukemia
# [42] = system: MOLT-4 leukemia
# [43] = system: OVCAR-4 ovarian
# [44] = system: ACHN renal
# [45] = system: KM12 colon
# [46] = system: HCC-2998 colon
# [47] = system: M14 melanoma
# [48] = system: SF-539 CNS
# [49] = system: SR leukemia
# [50] = system: NCI-H522 lung
# [51] = system: MALME-3M melanoma
# [52] = system: NCI-H23 lung
# [53] = system: TK-10 renal
# [54] = system: IGROV1 ovarian
# [55] = system: HT29 colon
# [56] = system: T-47D breast
# [57] = system: COLO 205 colon
compound,measurement,setting,value
C[C@H](Nc1ncnc2nc[nH]c12)c1cc2cccc(Cl)c2c(=O)n1-c1ccccc1,GI50,[1],12.6 µM
same,TGI,[1],> 100 µM
same,GI50,[2],46.9 µM
same,TGI,[2],> 100 µM
same,GI50,[3],1570 nM
same,TGI,[3],> 83.1 µM
same,GI50,[4],> 100 µM
same,TGI,[4],> 100 µM
same,GI50,[5],46.4 µM
same,TGI,[5],> 100 µM
same,GI50,[6],631 nM
same,TGI,[6],14.5 µM
same,GI50,[7],229 nM
same,TGI,[7],55.2 µM
same,GI50,[8],1670 nM
same,TGI,[8],> 75.3 µM
same,GI50,[9],4.19 µM
same,TGI,[9],> 100 µM
same,GI50,[10],19.4 µM
same,TGI,[10],> 100 µM
same,GI50,[11],273 nM
same,TGI,[11],9.41 µM
same,GI50,[12],27 µM
same,TGI,[12],> 100 µM
same,GI50,[13],19.8 µM
same,TGI,[13],> 100 µM
same,GI50,[14],31.5 µM
same,TGI,[14],> 100 µM
same,GI50,[15],25.8 µM
same,TGI,[15],> 100 µM
same,GI50,[16],24.2 µM
same,TGI,[16],> 100 µM
same,GI50,[17],1540 nM
same,TGI,[17],> 100 µM
same,GI50,[18],30.3 µM
same,TGI,[18],> 100 µM
same,GI50,[19],2600 nM
same,TGI,[19],> 100 µM
same,GI50,[20],60.3 µM
same,TGI,[20],> 100 µM
same,GI50,[21],18.4 µM
same,TGI,[21],> 100 µM
same,GI50,[22],3.11 µM
same,TGI,[22],> 100 µM
same,GI50,[23],3.16 µM
same,TGI,[23],> 100 µM
same,GI50,[24],8.57 µM
same,TGI,[24],> 100 µM
same,GI50,[25],1420 nM
same,TGI,[25],> 86.7 µM
same,GI50,[26],> 77.4 µM
same,TGI,[26],> 100 µM
same,GI50,[27],2390 nM
same,TGI,[27],> 100 µM
same,GI50,[28],21.4 µM
same,TGI,[28],> 100 µM
same,GI50,[29],13.5 µM
same,TGI,[29],> 100 µM
same,GI50,[30],19.2 µM
same,TGI,[30],72.6 µM
same,GI50,[31],26.2 µM
same,TGI,[31],> 100 µM
same,GI50,[32],17.7 µM
same,TGI,[32],> 100 µM
same,GI50,[33],49.1 nM
same,TGI,[33],446 nM
same,GI50,[34],11.8 µM
same,TGI,[34],> 100 µM
same,GI50,[35],11.8 µM
same,TGI,[35],> 100 µM
same,GI50,[36],22.6 µM
same,TGI,[36],> 100 µM
same,GI50,[37],10.8 µM
same,TGI,[37],> 100 µM
same,GI50,[38],36.5 µM
same,TGI,[38],> 100 µM
same,GI50,[39],3.37 µM
same,TGI,[39],99.5 µM
same,GI50,[40],1380 nM
same,TGI,[40],69.7 µM
same,GI50,[41],3000 nM
same,TGI,[41],> 100 µM
same,GI50,[42],6.53 µM
same,TGI,[42],51.1 µM
same,GI50,[43],> 100 µM
same,TGI,[43],> 100 µM
same,GI50,[44],5 µM
same,TGI,[44],> 100 µM
same,GI50,[45],27.1 µM
same,TGI,[45],> 100 µM
same,GI50,[46],28.4 µM
same,TGI,[46],> 100 µM
same,GI50,[47],21.1 µM
same,TGI,[47],> 100 µM
same,GI50,[48],12.5 µM
same,TGI,[48],> 96 µM
same,GI50,[49],24.3 µM
same,TGI,[49],> 100 µM
same,GI50,[50],6.93 µM
same,TGI,[50],> 100 µM
same,GI50,[51],3.51 µM
same,TGI,[51],> 79.5 µM
same,GI50,[52],82.1 µM
same,TGI,[52],> 100 µM
same,GI50,[53],2800 nM
same,TGI,[53],45.5 µM
same,GI50,[54],1580 nM
same,TGI,[54],7.51 µM
same,GI50,[55],5.92 µM
same,TGI,[55],> 100 µM
same,GI50,[56],1580 nM
same,TGI,[56],> 43.5 µM
same,GI50,[57],19.7 µM
same,TGI,[57],> 100 µM
